Target: T1, human TPO receptor (c-mp1) (Homo sapiens, UniProt P40238)
T1 construct: expressed in transfected cells
T1 sequence (P40238 26-635): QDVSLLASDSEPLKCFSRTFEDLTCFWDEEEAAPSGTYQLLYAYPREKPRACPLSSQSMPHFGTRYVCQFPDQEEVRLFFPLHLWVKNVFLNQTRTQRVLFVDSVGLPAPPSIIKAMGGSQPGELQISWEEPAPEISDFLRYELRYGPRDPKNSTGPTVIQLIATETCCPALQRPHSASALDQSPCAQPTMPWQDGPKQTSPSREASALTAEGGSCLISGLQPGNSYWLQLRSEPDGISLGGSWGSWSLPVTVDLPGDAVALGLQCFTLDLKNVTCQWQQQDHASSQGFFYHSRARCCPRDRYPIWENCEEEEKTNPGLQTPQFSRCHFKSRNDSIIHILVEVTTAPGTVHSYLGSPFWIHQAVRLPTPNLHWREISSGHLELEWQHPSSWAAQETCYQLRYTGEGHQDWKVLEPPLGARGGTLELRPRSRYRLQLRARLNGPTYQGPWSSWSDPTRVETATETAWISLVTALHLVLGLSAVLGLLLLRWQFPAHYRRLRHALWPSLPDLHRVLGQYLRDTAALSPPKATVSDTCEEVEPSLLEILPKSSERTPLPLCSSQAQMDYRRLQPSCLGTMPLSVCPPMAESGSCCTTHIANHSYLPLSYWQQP
Experiment: Stimulation of proliferation of TPO-dependent cell line UT7/EPO-mpl (WST-8)
Assay type: cell-based
Details: FIG. 1; 4 days incubation, WST-8, absorbance at 450 nm
Description: The reactivity of the compound of Synthetic Example 4 of the present invention with thrombopoietin (TPO) receptor was assayed using a human leukemic cell line, UT7/EPO-mpl.
(§1) UT7/EPO-mpl is a stable transformed cell line obtained by introducing into human leukemic cell line UT7/EPO a vector that induces expression of human TPO receptor (c-mp1) under control of cytomegalovirus immediate-early promoter by the method of Takatoku et al. (J. Biol. Chem., 272:7259-7263 (1997)). […] These two cell lines were subcultured in Iscove's modified Dulbecco's medium (IMDM; GIBCO) containing 10% fetal bovine serum (FBS; Thermo Electron or BioWest) using a CO2 incubator (5% CO2, 37° C.).
(§2) The subcultured cells described above were washed twice with phosphate buffered saline (PBS) and suspended in IMDM containing 10% FBS at a cell density of 6×10^4 cells/ml. The cell suspension was transferred to a 96-well tissue culture plate (CORNING) in 100-μl aliquots. Then either TPO (Pepro Tech EC) or the compound of Synthetic Example 4 dissolved in dimethyl sulfoxide (DMSO) was diluted 83-fold with IMDM containing 10% FBS and added to the aforementioned cell suspension in 20-μl aliquots. The cell suspension was incubated in a CO2 incubator (5% CO2, 37° C.) for 4 days. Cell proliferation was assayed using WST-8 reagent (Kishida Chemical Co., Ltd.) according to instructions by the manufacturer. A 10-μl aliquot of 5 mM WST-8 reagent solution was added to each well of the tissue culture plate, and the plate was incubated at 37° C. for 4 h. The formazan pigment generated was detected by measuring the absorbance at 450 nm with a 96-well microplate reader (Nihon Molecular Devices, Spectramax 190).
The compounds of the following Synthetic Examples were tested according to the method of Assay Example 1 to determine the concentration of each compound that yields a growth rate corresponding to 50% of the growth of human leukemic cell line UT-7/EPO-mpl observed in the presence of 10 ng/ml TPO (EC50).

Row | SMILES | proliferation of TPO-responsive UT7/EPO-mpl cells
1 | CC(=NNC(=S)NCC(=O)O)c1csc(-c2ccc(Cl)c(Cl)c2)c1O [Synthetic Example 4, 2-[(2-{1-[5-(3,4-dichlorophenyl)-4-hydroxythiophen-3-yl]-etylidene}-hydrazinocarbonothioyl)amino]acetic acid] | stimulated by the compound of Synthetic Example 4 in a concentration-dependent manner

Same assay, conditions: concentration that yields a growth rate corresponding to 50% of the growth of UT-7/EPO-mpl observed in the presence of 10 ng/ml TPO; 4 days incubation

Row | SMILES | EC50 [ng/mL]
2 | CC(=NNC(=S)NCC(=O)O)c1csc(-c2ccc(Cl)c(Cl)c2)c1O [Synthetic Example 4, 2-[(2-{1-[5-(3,4-dichlorophenyl)-4-hydroxythiophen-3-yl]-etylidene}-hydrazinocarbonothioyl)amino]acetic acid] | 5.6

Same assay, conditions: concentration that yields a growth rate corresponding to 50% of the growth of UT-7/EPO-mpl observed in the presence of 10 ng/ml TPO; 4 days incubation; read-out: EC50 (converted)

Row | SMILES | EC50 [nM]
3 | COC(=O)C1CCN(C(=S)NN=C(C)c2csc(-c3ccc(Cl)c(Cl)c3)c2O)CC1 [Synthetic Example 1, methyl 1-{1-[5-(3,4-dichlorophenyl)-4-hydroxythiophen-3-yl]-ethylidene-hydrazinothiocarbonyl}-piperidine-4-carboxylate] | 63.7
4 | CC(=NNC(=S)N1CCC(C(=O)O)CC1)c1csc(-c2ccc(Cl)c(Cl)c2)c1O [Synthetic Example 2, 1-{1-[5-(3,4-dichlorophenyl)-4-hydroxythiophen-3-yl]-ethylidene-hydrazinothiocarbonyl}-piperidine-4-carboxylic acid] | 6.77
5 | COC(=O)CNC(=S)NN=C(C)c1csc(-c2ccc(Cl)c(Cl)c2)c1O [Synthetic Example 3, methyl 2-[(2-{1-[5-(3,4-dichlorophenyl)-4-hydroxythiophen-3-yl]-ethylidene}-hydrazinocarbonothioyl)amino]acetate] | 55.5
6 | COC(=O)CCNC(=S)NN=C(C)c1csc(-c2ccc(Cl)c(Cl)c2)c1O [Synthetic Example 5, methyl 3-[(2-{1-[5-(3,4-dichlorophenyl)-4-hydroxythiophen-3-yl]-ethylidene}-hydrazinocarbonothioyl)amino]propionate] | 67.2
7 | CC(=NNC(=S)NCCC(=O)O)c1csc(-c2ccc(Cl)c(Cl)c2)c1O [Synthetic Example 6, 3-[(2-{1-[5-(3,4-dichlorophenyl)-4-hydroxythiophen-3-yl]-ethylidene}-hydrazinocarbonothioyl)amino]propionic acid] | 32.4
8 | COCCNC(=S)NN=C(C)c1csc(-c2ccc(Cl)c(Cl)c2)c1O [Synthetic Example 7, 1-(2-{1-[5-(3,4-dichlorophenyl)-4-hydroxythiophen-3-yl]-ethylidene}-hydrazinocarbonothioyl)amino-2-methoxyethane] | 66.9
9 | COC(=O)C1CCN(C(=S)NN=C(C)c2csc(-c3ccc(Br)cc3)c2O)CC1 [Synthetic Example 8, methyl 1-{1-[5-(4-bromophenyl)-4-hydroxy-thiophen-3-yl]-ethylidene-hydrazinothiocarbonyl}-piperidine-4-carboxylate] | 50.4
10 | CC(=NNC(=S)N1CCC(C(=O)O)CC1)c1csc(-c2ccc(Br)cc2)c1O [Synthetic Example 9, 1-{1-[5-(4-bromophenyl)-4-hydroxy-thiophen-3-yl]-ethylidene-hydrazinothiocarbonyl}-piperidin-4-carboxylic acid] | 4.77
11 | CC(=NNC(=S)N1CCC(C(=O)O)CC1)c1csc(-c2ccc(C(F)(F)F)cc2)c1O [Synthetic Example 10, 1-{1-[4-hydroxy-5-(4-trifluoromethylphenyl)-thiophen-3-yl]-ethylidene-hydrazinothiocarbonyl}-piperidine-4-carboxylic acid] | 5.73
12 | CC(=NNC(=S)N1CCC(C(=O)O)CC1)c1csc(-c2ccc(OC(F)(F)F)cc2)c1O [Synthetic Example 11, 1-{1-[5-(4-trifluoromethoxyphenyl)-4-hydroxythiophen-3-yl]-ethylidene-hydrazinothiocarbonyl}-piperidine-4-carboxylic acid] | 5.95
13 | CC(=NNC(=S)N1CCC(C(=O)O)CC1)c1csc(-c2ccc(Cl)cc2)c1O [Synthetic Example 12, 1-{1-[5-(4-chlorophenyl)-4-hydroxy-thiophen-3-yl]-ethilidene-hydrazinothiocarbonyl}-piperidine-4-carboxylic acid] | 4.79
14 | CC(=NNC(=S)N1CCC(C(=O)O)CC1)c1csc(-c2ccc(C)c(C)c2)c1O [Synthetic Example 13, 1-{1-[5-(3,4-dimethylphenyl)-4-hydroxythiophen-3-yl]-ethylidene-hydrazinothiocarbonyl}-piperidine-4-carboxylic acid] | 6.02
15 | CC(=NNC(=S)N1CCC(C(=O)O)CC1)c1csc(-c2ccc(C(C)(C)C)cc2)c1O [Synthetic Example 14, 1-{1-[5-(4-t-butylphenyl)-4-hydroxy-thiophen-3-yl]-ethylidene-hydrazinothiocarbonyl}-piperidine-4-carboxylic acid] | 5.66
16 | CC(=NNC(=S)N1CCC(C(=O)O)CC1)c1csc(-c2cccc(Cl)c2)c1O [Synthetic Example 15, 1-{1-[5-(3-chlorophenyl)-4-hydroxythiophen-3-yl]-ethylidene-hydrazinothiocarbonyl}-piperidine-4-carboxylic acid] | 5.94
17 | CC(=NNC(=S)N1CCC(C(=O)O)CC1)c1nn(C)c(-c2ccc(C(F)(F)F)cc2)c1O [Synthetic Example 16, 1-{1-[4-hydroxy-1-methyl-5-(4-trifluoromethylphenyl)-1H-pyrazol-3-yl]-ethylidene-hydrazinothiocarbonyl}-piperidine-4-carboxylic acid] | 8.09
18 | CC(=NNC(=S)N1CCC(C(=O)O)CC1)c1nn(C)c(-c2ccc(Cl)c(Cl)c2)c1O [Synthetic Example 17, 1-{1-[5-(3,4-dichlorophenyl)-4-hydroxy-1-methyl-1H-pyrazol-3-yl]-ethylidene-hydrazinothiocarbonyl}-piperidine-4-carboxylic acid] | 16.6
19 | CC(=NNC(=S)N1CCCC(C(=O)O)C1)c1csc(-c2ccc(Cl)c(Cl)c2)c1O (centres unmarked) [Synthetic Example 18, 1-{1-[5-(3,4-dichlorophenyl)-4-hydroxythiophen-3-yl]-ethylidene-hydrazinothiocarbonyl}-piperidine-3-carboxylic acid] | 46.6
20 | CCN(CC)C(=O)C1CCN(C(=S)NN=C(C)c2csc(-c3ccc(Cl)c(Cl)c3)c2O)CC1 [Synthetic Example 19, 1-{1-[5-(3,4-dichlorophenyl)-4-hydroxythiophen-3-yl]-ethylidene-hydrazinothiocarbonyl}-piperidine-4-carboxylic acid diethylamide] | 49.3
21 | CC(=NNC(=S)N1CCC(O)CC1)c1csc(-c2ccc(Cl)c(Cl)c2)c1O [Synthetic Example 20, 1-{1-[5-(3,4-dichlorophenyl)-4-hydroxythiophen-3-yl]-ethylidene-hydrazinothiocarbonyl}-piperidin-4-ol] | 6.98
22 | CC(=NNC(=S)N1CCCC(O)C1)c1csc(-c2ccc(Cl)c(Cl)c2)c1O (centres unmarked) [Synthetic Example 21, 1-{1-[5-(3,4-dichlorophenyl)-4-hydroxythiophen-3-yl]-ethylidene-hydrazinothiocarbonyl}-piperidin-3-ol] | 51.8
23 | CC(=NNC(=S)N1CCC(CO)CC1)c1csc(-c2ccc(Cl)c(Cl)c2)c1O [Synthetic Example 22, 1-{1-[5-(3,4-dichlorophenyl)-4-hydroxythiophen-3-yl]-ethylidene-hydrazinothiocarbonyl}-piperidine-4-methanol] | 45.8
24 | COCCCNC(=S)NN=C(C)c1csc(-c2ccc(Cl)c(Cl)c2)c1O [Synthetic Example 23, 1-(2-{1-[5-(3,4-dichlorophenyl)-4-hydroxythiophen-3-yl]-ethylidene}-hydrazinocarbonothioyl)amino-3-methoxypropane] | 76.3

Same assay, conditions: concluded from UT7/EPO-mpl versus UT7/EPO proliferation (FIG. 1, FIG. 2)

Row | SMILES | selectivity of action on the TPO receptor
25 | CC(=NNC(=S)NCC(=O)O)c1csc(-c2ccc(Cl)c(Cl)c2)c1O [Synthetic Example 4, 2-[(2-{1-[5-(3,4-dichlorophenyl)-4-hydroxythiophen-3-yl]-etylidene}-hydrazinocarbonothioyl)amino]acetic acid] | acts on the TPO receptor selectively as an activator

System: UT7/EPO cells
Experiment: Proliferation of mother cell line UT7/EPO expressing no TPO receptor (WST-8)
Assay type: cell-based, human
Details: FIG. 2, 4 days incubation
Description: as §1
as §2, with “A 10-μl aliquot of 5 mM WST-8 reagent solution was added to each well of the tissue culture plate, and the plate was incubated at 37° C. for 4 h.” left out

Row | SMILES | effect on proliferation of UT7/EPO, the mother cell line
26 | CC(=NNC(=S)NCC(=O)O)c1csc(-c2ccc(Cl)c(Cl)c2)c1O [Synthetic Example 4, 2-[(2-{1-[5-(3,4-dichlorophenyl)-4-hydroxythiophen-3-yl]-etylidene}-hydrazinocarbonothioyl)amino]acetic acid] | no effect

Source: patent US8552031B2, “3-ethylidenehydrazino substituted heterocyclic compounds as thrombopoietin receptor activators” (Nissan Chemical Industries, Ltd., priority 2004, dated 2013)
